In US12303570B2, “Compositions and methods for assessing eye vasculature” (MediBeacon Inc., priority 2015, dated 2025):
Where a name gives a salt, the structure may show the parent alone.

Columns and labels:
[1] = UV/vis absorption and fluorescence of pyrazine dyes; format: physicochemical
[2] = cited from earlier work
serum protein = settings: immediately upon intra-venous injection; cited from earlier work
[3] = 100 μM (Example 4 prints 100 μm)

SMILES	UV/vis λabs ([1]; 100 μM in PBS) [nm]	Fluorescence λem ([1]; 100 nM) [nm]	Fluorescence λex ([1]; 100 nM) [nm]	also measured
Nc1nc(C(=O)N[C@H](CO)C(=O)O)c(N)nc1C(=O)N[C@H](CO)C(=O)O [Example 2, 3,6-diamino-N^2,N^5-bis(D-serine)-pyrazine-2,5-dicarboxamide]	434			light absorption maximum [1]: 445 nm; light emission maximum [1]: 560 nm; Fluorescence λem ([1]; concentration not given): 559 nm; Fluorescence λex ([1]; concentration not given): 449 nm
COCCN(CCOC)C(=O)c1nc(N)c(C(=O)N(CCOC)CCOC)nc1N [Example 4, 3,6-diamino-N^2,N^2,N^5,N^5-tetrakis(2-methoxyethyl) pyrazine-2,5-dicarboxamide]	394			Fluorescence λex [1, 3]: 394 nm; Fluorescence λem ([1]; 100 μm): 550 nm
COCCOCCOCCOCCC(=O)NCCNC(=O)c1nc(N)c(C(=O)NCCNC(=O)CCOCCOCCOCCOC)nc1N [Example 9, 3,6-diamino-N^2,N^5-bis(14-oxo-2,5,8,11-tetraoxa-15-azaheptadecan-17-yl) pyrazine-2,5-dicarboxamide]	437	559	437	
NCCNC(=O)c1nc(N)c(C(=O)NCCN)nc1N [Example 7, 3,6-diamino-N^2,N^5-bis(2-aminoethyl)pyrazine-2,5-dicarboxamide Bis TFA Salt]	435	562	449	
COCCOCCOCCOCCOCCOCCOCCOCCOCCOCCOCCOCCC(=O)NCCNC(=O)c1nc(N)c(C(=O)NCCNC(=O)CCOCCOCCOCCOCCOCCOCCOCCOCCOCCOCCOCCOC)nc1N [Example 11, 3,6-diamino-N^2,N^5-bis(38-oxo-2,5,8,11,14,17,20,23,26,29,32,35-dodecaoxa-39-azahentetracontan-41-y) pyrazine-2,5-dicarboxamide]	449	559	449	
COCCN(CCOC)c1nc(C(=O)N[C@H](CC(=O)O)C(=O)O)c(N2CCOCC2)nc1C#N [Example 13, (R)-2-(6-(bis(2-methoxyethyl)amino)-5-cyano-3-morpholinopyrazine-2-carboxamido)succinic Acid]	438			Fluorescence λem ([1]; 100 μM): 570 nm; Fluorescence λex [1, 3]: 449 nm
Nc1nc(C(=O)N[C@@H](CO)C(=O)O)c(N)nc1C(=O)N[C@@H](CO)C(=O)O [Example 3, 3,6-diamino-N^2,N^5-bis(L-serine)-pyrazine-2,5-dicarboxamide]				light absorption maximum [1]: 445 nm; light emission maximum [1]: 560 nm
Nc1nc(C(=O)N[C@H](CC(=O)O)C(=O)O)c(N)nc1C(=O)N[C@H](CC(=O)O)C(=O)O [Example 8, 3,6-diamino-N^2,N^5-bis(D-aspartate)-pyrazine-2,5-dicarboxamide]	433	558	449	
COCCN(CCOC)C(=O)c1nc(N(CCOC)CCOC)c(C(=O)N(CCOC)CCOC)nc1N(CCOC)CCOC [Example 6]	434			Fluorescence λem ([1]; concentration not given): 559 nm; Fluorescence λex ([1]; concentration not given): 449 nm
COCCOCCOCCOCCOCCOCCOCCOCCC(=O)NCCNC(=O)c1nc(N)c(C(=O)NCCNC(=O)CCOCCOCCOCCOCCOCCOCCOCCOC)nc1N [Example 10, 3,6-diamino-N^2,N^5-bis(26-oxo-2,5,8,11,14,17,20,23-octaoxa-27-azanonacosan-29-yl)pyrazine-2,5-dicarboxamide]	438	560	438	
O=C1OC2(c3ccc(O)cc3Oc3cc(O[C@@H]4O[C@H](C(=O)O)[C@@H](O)[C@H](O)[C@H]4O)ccc32)c2ccccc21 (stereo partly shown) [fluorescein glucuronide]				fluorescent yield relative to fluorescein ([2]; metabolite versus parent): 5%
Nc1nc(C(=O)NCC(O)CO)c(N)nc1C(=O)NCC(O)CO (stereo not shown) [Example 5, 3,6-diamino-N^2,N^5-bis (2,3-dihydroxypropyl) pyrazine-2,5-dicarboxamide]				UV/vis λabs ([1]; 100 μM in H2O): 432 nm; Fluorescence λem ([1]; concentration not given): 558 nm; Fluorescence λex ([1]; concentration not given): 432 nm
O=C1OC2(c3ccc(O)cc3Oc3cc(O)ccc32)c2ccccc21 [Sodium fluorescein]				lipid solubility [2]: relatively high; converted to non-fluorescent serum protein bound molecule (serum protein): 93%
